Measured values reported in patent publication US20100056524A1, “Compound” (priority 2008, published 2010).
Counter-ions that a name gives are not always drawn. Like-named read-outs stand apart in the source and are kept apart here.

Tests used:
Type in all cases: biochemical
MST2 = molecular target: T1, MST2 (Homo sapiens, UniProt Q13188); assay: MST2 protein kinase assay; details: for remaining activity at 1 µM: 1 μM compound; for remaining activity at 10 µM: 10 μM compound; for residual kinase activity MST2: 1 μm compound
T1 construct: All protein kinases were of human origin and encoded full length proteins, unless indicated otherwise; made in house
T1 sequence (Q13188 1-491): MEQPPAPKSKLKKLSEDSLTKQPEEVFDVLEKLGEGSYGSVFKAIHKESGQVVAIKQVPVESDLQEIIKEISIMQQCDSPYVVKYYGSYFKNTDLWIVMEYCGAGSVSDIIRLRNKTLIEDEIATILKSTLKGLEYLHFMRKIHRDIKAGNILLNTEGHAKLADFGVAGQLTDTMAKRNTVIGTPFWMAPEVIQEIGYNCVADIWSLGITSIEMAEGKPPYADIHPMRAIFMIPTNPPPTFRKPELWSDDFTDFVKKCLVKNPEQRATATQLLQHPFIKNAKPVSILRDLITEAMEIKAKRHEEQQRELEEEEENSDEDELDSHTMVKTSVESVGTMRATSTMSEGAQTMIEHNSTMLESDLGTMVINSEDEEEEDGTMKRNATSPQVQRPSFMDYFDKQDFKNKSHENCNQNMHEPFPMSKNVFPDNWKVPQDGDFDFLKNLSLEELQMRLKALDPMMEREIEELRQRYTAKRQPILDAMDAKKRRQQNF
From the text: (§1) All protein kinases were of human origin and encoded full length proteins, unless indicated otherwise. They were either expressed as glutathione S-transferase (GST) fusion proteins in Escherichia Coli or as hexahistidine (His6)-tagged proteins in insect Sf21 cells. GST fusion proteins were purified by affinity chromatography on glutathione-Sepharose, and His6-tagged proteins on nickel/nitriloacetate-agarose. The procedures for expressing some of the protein kinases used herein have been detailed previously.^8,9 The following sections outline the DNA vectors synthesised and the procedures used to express and purifying protein kinases that have not been reported previously.
(§2) All assays (25.5 μl) were carried out at room temperature (21° C.) and were linear with respect to time and enzyme concentration under the conditions used. Assays were performed for 30 min using Multidrop Micro reagent dispensers (Thermo Electron Corporation, Waltham, Mass. 02454, USA) in a 96-well format. The concentration of magnesium acetate in the assays was 10 mM and the [γ-33P] ATP (800 cpm/pmol) was used at 5, 20 or 50 μM as indicated, in order to be at or below the Km for ATP for each enzyme. Protein kinases assayed at 5 μM ATP were: —ERK1, ERK8, PKBα, MARK3, Aurora C. Protein kinases assayed at 20 μM ATP were: —JNK1, PDK1, CHK1, CHK2, CDK2 and Aurora B. Protein kinases assayed at 50 μM ATP were: —MNK2, IKKepsilon and TBK1.
(§3) The assays were initiated with MgATP, stopped by addition of 5 μl of 0.5 M orthophosphoric acid and spotted on to P81 filterplates using a unifilter harvester (PerkinElmer, Boston, Mass. 02118, USA). The IC50 values of inhibitors were determined after carrying out assays at 10 different concentrations of each compound.
(§4) Unless stated otherwise, enzymes were diluted in 50 mM Tris/HCl pH 7.5, 0.1 mM EGTA, 1 mg/ml BSA, 0.1% (v/v) 2-mercaptoethanol and assayed in 50 mM Tris/HCl pH 7.5, 0.1 mM EGTA, 0.1% (v/v) 2-mercaptoethanol.

PKCa = molecular target: T2, PKCa (Homo sapiens, UniProt P17252); assay: PKCa protein kinase assay; details: for remaining activity at 1 µM: 1 μM compound; for remaining activity at 10 µM: 10 μM compound; for residual kinase activity PKCa: 1 μm compound
T2 construct: All protein kinases were of human origin and encoded full length proteins, unless indicated otherwise; made in house
From the text: as §1, §2, §3, §4

PAK4 = molecular target: T3, PAK4 (Homo sapiens, UniProt O96013); assay: PAK4 protein kinase assay; details: for remaining activity at 1 µM: 1 μM compound; for remaining activity at 10 µM: 10 μM compound; for residual kinase activity PAK4: 1 μm compound
T3 construct: All protein kinases were of human origin and encoded full length proteins, unless indicated otherwise; made in house
T3 sequence (O96013 whole entry): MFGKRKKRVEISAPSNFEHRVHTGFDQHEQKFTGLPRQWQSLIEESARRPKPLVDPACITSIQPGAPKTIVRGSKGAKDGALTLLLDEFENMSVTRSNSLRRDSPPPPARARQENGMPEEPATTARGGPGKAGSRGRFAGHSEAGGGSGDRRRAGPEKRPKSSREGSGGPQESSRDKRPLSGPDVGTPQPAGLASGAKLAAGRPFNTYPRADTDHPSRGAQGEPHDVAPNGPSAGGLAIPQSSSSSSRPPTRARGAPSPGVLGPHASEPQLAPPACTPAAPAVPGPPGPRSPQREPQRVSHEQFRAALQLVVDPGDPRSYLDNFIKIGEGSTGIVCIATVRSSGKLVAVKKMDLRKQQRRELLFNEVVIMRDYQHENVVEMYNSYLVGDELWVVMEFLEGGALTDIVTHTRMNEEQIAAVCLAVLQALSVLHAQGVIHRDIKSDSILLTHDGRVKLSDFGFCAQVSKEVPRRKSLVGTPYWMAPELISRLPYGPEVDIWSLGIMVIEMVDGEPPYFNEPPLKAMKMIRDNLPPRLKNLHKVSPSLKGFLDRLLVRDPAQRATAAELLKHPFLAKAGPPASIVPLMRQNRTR
From the text: as §1, §2, §3, §4

p38a MAPK = molecular target: T4, p38a MAPK (Homo sapiens, UniProt Q16539); assay: p38a MAPK protein kinase assay; details: for remaining activity at 1 µM: 1 μM compound; for remaining activity at 10 µM: 10 μM compound; for residual kinase activity p38a MAPK: 1 μm compound
T4 construct: All protein kinases were of human origin and encoded full length proteins, unless indicated otherwise; made in house
T4 sequence (Q16539 whole entry): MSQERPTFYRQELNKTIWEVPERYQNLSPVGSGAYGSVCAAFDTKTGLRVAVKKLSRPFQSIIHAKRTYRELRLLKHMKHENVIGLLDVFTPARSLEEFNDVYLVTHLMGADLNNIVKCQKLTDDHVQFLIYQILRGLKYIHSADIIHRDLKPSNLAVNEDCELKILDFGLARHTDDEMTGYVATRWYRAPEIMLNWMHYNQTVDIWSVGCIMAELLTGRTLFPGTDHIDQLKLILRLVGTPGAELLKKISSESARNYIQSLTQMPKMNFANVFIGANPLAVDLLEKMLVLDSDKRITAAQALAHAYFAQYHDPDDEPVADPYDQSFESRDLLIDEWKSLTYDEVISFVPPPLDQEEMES
From the text: as §1, §2, §3, §4

EPH-B3 = molecular target: T5, EPH-B3 (Homo sapiens, UniProt P54753); assay: EPH-B3 protein kinase assay; details: for remaining activity at 1 µM: 1 μM compound; for remaining activity at 10 µM: 10 μM compound; for residual kinase activity EPH-B3: 1 μm compound
T5 construct: All protein kinases were of human origin and encoded full length proteins, unless indicated otherwise; made in house
T5 sequence (P54753 34-998): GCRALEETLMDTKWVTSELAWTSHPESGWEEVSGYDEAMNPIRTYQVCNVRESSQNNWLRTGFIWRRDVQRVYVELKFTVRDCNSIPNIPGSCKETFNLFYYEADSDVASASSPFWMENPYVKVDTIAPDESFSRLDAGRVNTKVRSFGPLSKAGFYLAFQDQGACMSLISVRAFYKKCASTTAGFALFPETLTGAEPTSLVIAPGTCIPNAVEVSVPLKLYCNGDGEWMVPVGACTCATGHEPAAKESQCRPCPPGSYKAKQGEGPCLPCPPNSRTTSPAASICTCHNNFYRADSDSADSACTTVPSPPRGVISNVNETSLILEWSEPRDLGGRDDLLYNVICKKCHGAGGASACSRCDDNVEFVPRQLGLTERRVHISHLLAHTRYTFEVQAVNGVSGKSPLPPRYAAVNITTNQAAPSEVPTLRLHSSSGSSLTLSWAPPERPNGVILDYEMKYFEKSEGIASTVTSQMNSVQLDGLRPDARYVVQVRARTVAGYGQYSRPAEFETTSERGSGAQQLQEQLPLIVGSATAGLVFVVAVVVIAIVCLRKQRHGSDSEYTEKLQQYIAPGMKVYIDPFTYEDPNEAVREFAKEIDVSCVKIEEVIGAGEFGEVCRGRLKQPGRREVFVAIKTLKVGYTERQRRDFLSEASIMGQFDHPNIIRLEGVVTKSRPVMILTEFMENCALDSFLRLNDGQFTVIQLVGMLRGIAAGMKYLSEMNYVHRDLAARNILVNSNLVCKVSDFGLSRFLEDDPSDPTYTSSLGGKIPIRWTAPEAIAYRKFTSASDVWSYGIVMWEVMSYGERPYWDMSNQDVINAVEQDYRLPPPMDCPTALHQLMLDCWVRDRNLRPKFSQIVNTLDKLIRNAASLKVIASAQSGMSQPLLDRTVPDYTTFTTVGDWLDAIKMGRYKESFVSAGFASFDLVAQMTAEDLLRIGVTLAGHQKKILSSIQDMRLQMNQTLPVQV
From the text: as §1, §2, §3, §4

[1] = MST2, read-out: residual kinase activity
[2] = PKCa, read-out: residual kinase activity
[3] = PAK4, read-out: residual kinase activity
[4] = p38a MAPK, read-out: residual kinase activity
[5] = EPH-B3, read-out: residual kinase activity
[6] = read-out: residual kinase activity MST2
[7] = read-out: residual kinase activity PKCa
[8] = read-out: residual kinase activity PAK4
[9] = read-out: residual kinase activity p38a MAPK
[10] = read-out: residual kinase activity EPH-B3

Structure (SMILES)	remaining activity at 1 µM (MST2; [1]) [%]	remaining activity at 10 µM (MST2; [1]) [%]	remaining activity at 1 µM (PKCa; [2]) [%]	remaining activity at 10 µM (PKCa; [2]) [%]	remaining activity at 1 µM (PAK4; [3]) [%]	remaining activity at 10 µM (PAK4; [3]) [%]	remaining activity at 1 µM (p38a MAPK; [4]) [%]	remaining activity at 10 µM (p38a MAPK; [4]) [%]	remaining activity at 1 µM (EPH-B3; [5]) [%]	remaining activity at 10 µM (EPH-B3; [5]) [%]	remaining activity at 10 µM (MST2; [6]) [%]	residual kinase activity MST2 (MST2) [%]	remaining activity at 10 µM (PKCa; [7]) [%]	residual kinase activity PKCa (PKCa) [%]	remaining activity at 10 µM (PAK4; [8]) [%]	residual kinase activity PAK4 (PAK4) [%]	remaining activity at 10 µM (p38a MAPK; [9]) [%]	residual kinase activity p38a MAPK (p38a MAPK) [%]	remaining activity at 10 µM (EPH-B3; [10]) [%]	residual kinase activity EPH-B3 (EPH-B3) [%]
O=C(NCCCNc1nc(Nc2cccc(N3CCCC3=O)c2)ncc1C1CC1)c1cccs1 [Example 47, Thiophene-2-carboxylic acid (3-{5-cyclopropyl-2-[3-(2-oxo-pyrrolidin-1-yl)-phenylamino]-pyrimidin-4-ylamino}-propyl)-amide. Hydrochloride salt]	84	70	83	69	80	57	105	100	48	93	–	–	–	–	–	–	–	–	–	–
O=C(NCCCNc1nc(Nc2cccnc2)ncc1C1CC1)c1cccs1 [Example 50, Thiophene-2-carboxylic acid {3-[5-cyclopropyl-2-(pyridin-3-ylamino)-pyrimidin-4-ylamino]-propyl}-amide]	73	33	85	70	75	35	106	90	100	97	–	–	–	–	–	–	–	–	–	–
O=C(NCCCNc1nc(Nc2cccc(F)c2)ncc1Br)C1CCC1 [Compound A, cyclobutanecarboxylic acid {3-[5-bromo-2-(3-fluoro-phenylamino)-pyrimidin-4-ylamino]-propyl}-amide, reference compound]	–	–	–	–	–	–	–	–	–	–	6	29	49	94	6	32	78	99	69	92
O=C(NCCCNc1nc(Nc2cccc(F)c2)ncc1C1CC1)C1CCC1 [Example 23, Cyclobutanecarboxylic acid {3-[5-cyclopropyl-2-(3-fluoro-phenylamino)-pyrimidin-4-ylamino]-propyl}-amide]	73	33	81	87	72	31	72	86	120	95	33	73	87	81	31	72	86	72	95	120
